Laboratory results as given in patent US11707500B2, “Growth promoting peptides, and uses thereof” (NURITAS LIMITED, priority 2015, dated 2023).

Columns and labels:
Type in all cases: cell-based
[1] = test system: Human Dermal Fibroblasts (HDF); test: BrdU cell proliferation assay; conditions: HDF incubated 24 h with 5, 0.5 or 0.05 μg/ml synthetic peptide; percentage of untreated control
Experimental: BrDu is incorporated into newly synthesised DNA strands of actively proliferating cells. Following partial denaturation of double stranded DNA, Brdu is detected immunochemically allowing the assessment of the population of cells which are synthesizing DNA.
Human Dermal Fibroblasts (HDF—Sigma 10605a) were seeded in a 96 well plate at 10,000 cells per well in DMEM containing 10% fetal calf serum (FCS), 1% Pen/strep, 1% L-glutamine and allowed to adhere for 24 h.
Following the initial 24 h incubation the cells were incubated with 5 μg/ml, 0.5 μg/ml or 0.05 μg/ml synthetic peptide for 24 h respectively.
After 18 h incubation with synthetic peptides 20 μl BrDu reagent was added to each well.
At 24 h incubation the cell were fixed and the amount of […] was measured using the BrdU Cell Proliferation Assay, all steps were carried out according to the manufacturer's instructions.
Results were calculated as a percentage of the untreated control. An increase in optical density reading indicates greatER incorporation of BrDu and increase cell proliferation.

[2] = test system: keratinocytes of the basal layer of the epidermis, human skin tissue explants; test: Ki67 immunohistochemistry (mitotic index) in skin explants; conditions: for % of Ki67 positive cells in the basal layer of the epidermis: peptides 20 μM (Peptide 8 10 μM), compositions 500 μg/mL, EGF 10 ng/mL; for number of mitotic cells compared to EGF at day 1: day 1, compared to EGF
Experimental: (§1) Skin explants were prepared from abdominal plastic surgery. Some explants were delipidated with alcohol to obtain a dehydrated skin.
(§2) These explants were maintained in maintenance medium supplied by the provider Bioprédic International for 5 days. Test items are applied twice per day with 5 μL per explant.
(§3) After receipt in the laboratory, each skin explant in the maintenance medium is delipidated with 5 μL alcohol during 3 hours.
(§4) After 3 hours, all skin explants are treated two per day with test items, and they are incubated at 37° C.+/−2° C., 5% CO2 for 1 day or 5 days. Integrity of the system is realized at day 1 and day 5 with a viability control with MTT.
Epithelial proliferation was analyzed by immunohistochemistry using anti-Ki67 antibody.
Counting the number of labeled cells (keratinocytes of the basal layer of the epidermis) is performed and provides the total number of basal cells to calculate the % of labeled cells.
The results of the immunohistochemical analysis of Ki67 are reported in Table 4 and expressed as % of labelled at the basal layer of the epidermis. […] Immunohistochemical analysis of mitotic activity is shown in annex 4 with a reminder of the average for each analysed conditions.

[3] = test system: elastic fibers of the dermis, human skin tissue explants; test: Morphometric quantification of elastic fibers (elastin expression) in skin explants; conditions: for Morphometric quantification of elastic fibers in the middle dermis (%) / Morphometric quantification of elastic fibers in the superficial dermis (%): test items applied twice per day, 5 μL per explant, peptides 20 μM (Peptide 8 10 μM), compositions 500 μg/mL, EGF 10 ng/mL
Experimental: as §1, §2
For each time of analysis (D1 and D5), histologies on delipidated explants, treated explants with test items, the DMSO 0.3% control and water control, are performed.
as §3, §4
Histology is realized by the laboratory Gredeco and the immunostaining to elastin and Ki67 are realized by the same laboratory. Immunostaining to filaggrin is realized by the laboratory Intertek.
The immunohistochemical staining intensity in the elastic fibers is evaluated using a semi-quantitative histological score.
The percentage area taken up by elastic fibers in the dermis was calculated in the dermis and the average superficial dermis.

Substance: 470 (PHMP) [compound 470]
- INCREASE IN PROLIFERATION [1]: 119%

Substance: 471 (PHMPS) [compound 471]
- INCREASE IN PROLIFERATION [1]: 38%

Substance: 472 (PRRF) [compound 472]
- INCREASE IN PROLIFERATION [1]: 77%

Substance: 473 (WMKA) [compound 473]
- INCREASE IN PROLIFERATION [1]: 41%

Substance: 474 (DSINALEPDHR) [compound 474]
- INCREASE IN PROLIFERATION [1]: 121%

Substance: 477 (IFEDAITIPGR) [compound 477]
- INCREASE IN PROLIFERATION [1]: 81%

Substance: 478 (LDALEPDNRIESE) [compound 478]
- INCREASE IN PROLIFERATION [1]: 76%

Substance: 479 (KTLDYWPSLR) [compound 479]
- INCREASE IN PROLIFERATION [1]: 106%

Substance: 480 (RHGEWGPSY) [compound 480]
- INCREASE IN PROLIFERATION [1]: 102%

Substance: 482 (ILVDGSHDIER) [compound 482]
- INCREASE IN PROLIFERATION [1]: 113%

Substance: 495 (HPMS) [compound 495]
- INCREASE IN PROLIFERATION [1]: 68%

Substance: 497 (MPMP) [compound 497]
- INCREASE IN PROLIFERATION [1]: 58%

Substance: 499 (PNSM) [compound 499]
- INCREASE IN PROLIFERATION [1]: 113%

Substance: 500 (WDPA) [compound 500]
- INCREASE IN PROLIFERATION [1]: 6%

Substance: 501 (LRGFSK) [compound 501]
- INCREASE IN PROLIFERATION [1]: 43%

Substance: 502 (RSQNIF) [compound 502]
- INCREASE IN PROLIFERATION [1]: 68%

Substance: 503 (YLRGFS) [compound 503]
- INCREASE IN PROLIFERATION [1]: 125%

Substance: 504 (GALMLPHYN) [compound 504]
- INCREASE IN PROLIFERATION [1]: 119%

Substance: 505 (GALMLPHYNSR) [compound 505]
- INCREASE IN PROLIFERATION [1]: 118%

Substance: HGPVEMPYTLLYPSSK [0723.01]
- % of Ki67 positive cells in the basal layer of the epidermis ([2]; D 1): 18.57%
- % of Ki67 positive cells in the basal layer of the epidermis ([2]; D 5): 3.92%
- Morphometric quantification of elastic fibers in the middle dermis (%) ([3]; D 1): 7.59%
- Morphometric quantification of elastic fibers in the superficial dermis (%) ([3]; D 1): 4.45%
- elastic fibers in the middle dermis compared to the water control at D5 [3]: an increase
- Morphometric quantification of elastic fibers in the middle dermis (%) ([3]; D 5): 10.17%
- Morphometric quantification of elastic fibers in the superficial dermis (%) ([3]; D 5): 10.21%
- elastic fibers in the superficial dermis compared to control water [3]: increase by twice

Substance: LDALEPDNR [0723.03]
- % of Ki67 positive cells in the basal layer of the epidermis ([2]; D 1): 22.01%
- % of Ki67 positive cells in the basal layer of the epidermis ([2]; D 5): 10.04%
- Morphometric quantification of elastic fibers in the middle dermis (%) ([3]; D 1): 4.9%
- Morphometric quantification of elastic fibers in the superficial dermis (%) ([3]; D 1): 3%
- elastic fibers in the middle dermis compared to the water control at D5 [3]: an increase
- Morphometric quantification of elastic fibers in the middle dermis (%) ([3]; D 5): 9%
- Morphometric quantification of elastic fibers in the superficial dermis (%) ([3]; D 5): 11.68%
- elastic fibers in the superficial dermis compared to control water [3]: increase by twice

Substance: QQYGIAASPFLQSAA [0723.07]
- % of Ki67 positive cells in the basal layer of the epidermis ([2]; D 1): 22.22%
- % of Ki67 positive cells in the basal layer of the epidermis ([2]; D 5): 5.26%
- Morphometric quantification of elastic fibers in the middle dermis (%) ([3]; D 1): 6.46%
- Morphometric quantification of elastic fibers in the superficial dermis (%) ([3]; D 1): 4%
- Morphometric quantification of elastic fibers in the middle dermis (%) ([3]; D 5): 5.33%
- Morphometric quantification of elastic fibers in the superficial dermis (%) ([3]; D 5): 5.15%

Substance: RLQSQNDQRGEIIHVK [0723.02]
- % of Ki67 positive cells in the basal layer of the epidermis ([2]; D 1): 19.61%
- % of Ki67 positive cells in the basal layer of the epidermis ([2]; D 5): 6.73%
- Morphometric quantification of elastic fibers in the superficial dermis (%) ([3]; D 1): 6.09%
- elastic fibers in the middle dermis compared to the water control at D5 [3]: an increase
- Morphometric quantification of elastic fibers in the middle dermis (%) ([3]; D 5): 9.08%
- Morphometric quantification of elastic fibers in the superficial dermis (%) ([3]; D 5): 7.59%
- elastic fibers in the middle dermis at day 1 compared to control water ([3]; day 1, compared to control water): increase doubled

Substance: RPYYSNAPQEIF [0723.04]
- % of Ki67 positive cells in the basal layer of the epidermis ([2]; D 1): 14.97%
- % of Ki67 positive cells in the basal layer of the epidermis ([2]; D 5): 11.36%
- Morphometric quantification of elastic fibers in the middle dermis (%) ([3]; D 1): 5.22%
- Morphometric quantification of elastic fibers in the superficial dermis (%) ([3]; D 1): 3.28%
- Morphometric quantification of elastic fibers in the middle dermis (%) ([3]; D 5): 9%
- Morphometric quantification of elastic fibers in the superficial dermis (%) ([3]; D 5): 8.94%

Substance: SKPHTIFLPQHTDADYILVVLSGK [0723.08]
- % of Ki67 positive cells in the basal layer of the epidermis ([2]; D 1): 27.83%
- % of Ki67 positive cells in the basal layer of the epidermis ([2]; D 5): 5.72%
- number of mitotic cells compared to EGF at day 1 [2]: an increase
- Morphometric quantification of elastic fibers in the middle dermis (%) ([3]; D 1): 3.52%
- Morphometric quantification of elastic fibers in the superficial dermis (%) ([3]; D 1): 2.7%
- Morphometric quantification of elastic fibers in the middle dermis (%) ([3]; D 5): 7.27%
- Morphometric quantification of elastic fibers in the superficial dermis (%) ([3]; D 5): 5.32%

Substance: TVFDGVLRPGQL [0723.06]
- % of Ki67 positive cells in the basal layer of the epidermis ([2]; D 1): 31.97%
- % of Ki67 positive cells in the basal layer of the epidermis ([2]; D 5): 5.04%
- number of mitotic cells compared to EGF at day 1 [2]: an increase
- Morphometric quantification of elastic fibers in the middle dermis (%) ([3]; D 1): 4.54%
- Morphometric quantification of elastic fibers in the superficial dermis (%) ([3]; D 1): 3.8%
- Morphometric quantification of elastic fibers in the middle dermis (%) ([3]; D 5): 8.67%
- Morphometric quantification of elastic fibers in the superficial dermis (%) ([3]; D 5): 4.03%

Substance: VLLEQQEQEPQH [0723.05]
- % of Ki67 positive cells in the basal layer of the epidermis ([2]; D 1): 9.48%
- % of Ki67 positive cells in the basal layer of the epidermis ([2]; D 5): 3.08%
- Morphometric quantification of elastic fibers in the middle dermis (%) ([3]; D 1): 8.8%
- Morphometric quantification of elastic fibers in the superficial dermis (%) ([3]; D 1): 6.34%
- Morphometric quantification of elastic fibers in the middle dermis (%) ([3]; D 5): 6.61%
- Morphometric quantification of elastic fibers in the superficial dermis (%) ([3]; D 5): 6.26%
